Test system: human embryonic stem cell derived neural stem cells (NSCs)
Test: Neural stem cell proliferation assay (neurogenesis assay)
Assay type: cell-based
Settings: Homo sapiens, Neural stem cell, 96 h; Table 1, novel compounds; concentration at which 150% activity of control (100%) is reached; ATP levels (CellTiterGlo) after 4 days incubation
Experimental: Neural Stem Cell Proliferation Assay
Neurogenic properties of small molecules are determined based on the proliferation of human embryonic stem cell derived neural stem cells (NSCs) which were derived via a dual smad inhibition as previously described (Chambers, S. M., et al., Highly efficient neural conversion of human ES and iPS cells by dual inhibition of SMAD signaling, Nature biotechnology, 2009. 27 (3): p. 275-80.)
Compounds respond is measured by the increase in cells based on ATP levels (Promega:CellTiterGlo®) after an incubation period of 4 days.
NSCs are thawed and expanded over 3 passages. On the 14th day, NSCs are seeded in Polyornithin/Laminin coated 384 well plates at a cell density of 21,000 cells/cm^2 in a media volume of 38 μl.
4 hours after cell seeding, compound solutions are added at a volume of 2 μl. Stock solutions of the compounds (water, 5% DMSO) are diluted to obtain a dose response (11 points, dilution factor is 2), ranging from 8 μM to 8 nM. Controls are run to consistently determine the neurogenic properties of the cells:
Negative (neutral) control is cell culture Media (final DMSO concentration: 0.25%).
Positive controls are: • 1. cell culture Media+100 ng/ml FGF2 (final DMSO concentration: 0.1%) • 2. cell culture Media+20 ng/ml EGF (final DMSO concentration: 0.1%) • 3. cell culture Media+100 ng/ml Wnt3a (final DMSO concentration: 0.1%)
After 4 days incubation at 37° C., 5% CO2, the amount of ATP per well is quantified. The ATP concentration is proportional to the cell number. ATP is quantified by using the Promega CellTiterGlo® kit. The CellTiterGlo® reagents contain a cell lysis buffer, a thermo stable luciferase (UltraGlo™ recombinant luciferase), magnesium and luciferin. Luciferin reacts with ATP producing oxyluciferin, AMP and light. The luminescence signal is proportional to the ATP content.
The value of negative (neutral) control is determined for each assay plate by taking the average of 16 negative control wells. The neurogenic compound response is calculated for each compound as (compound/Negative Control)*100.
The values of EC150 from the dose response curve are determined for each test compound. The EC150 is the compound concentration at which 150% activity of control (100%) is reached.

First: CC(NC(=O)c1ccc2cncc(-c3ccc(Cl)cc3)c2n1)c1cccc(S(C)(=O)=O)c1 (single isomer, unassigned; (-)) [Example 52, (−)-8-(4-Chloro-phenyl)-[1,6]naphthyridine-2-carboxylic acid [(S or R)-1-(3-methanesulfonyl-phenyl)-ethyl]-amide]
Second: O=C(NCc1ccccc1)c1ccc2cncc(-c3ccc(Cl)cc3)c2n1 [Example 13, N-Benzyl-8-(4-chlorophenyl)-1,6-naphthyridine-2-carboxamide]
The EC (150% of control) of the first is 16-fold higher: 0.8 µM for the first, 0.05 µM for the second.

Compared with `COCCNC(=O)c1ccc2cncc(Br)c2n1` [Example 1, 8-Bromo-N-(2-methoxyethyl)-1,6-naphthyridine-2-carboxamide], `COCCNC(=O)c1ccc2cnccc2n1` [Example 4, N-(2-Methoxyethyl)-1,6-naphthyridine-2-carboxamide] is 2.4-fold lower in EC (150% of control): 1.2 µM for the first, 0.5 µM for the second.

Going from `COCCNC(=O)c1ccc2cncc(-c3ccc(OC)cc3)c2n1` [Example 2, N-(2-Methoxyethyl)-8-(4-methoxyphenyl)-1,6-naphthyridine-2-carboxamide] to `COCCNC(=O)c1ccc2cncc(-c3ccc(Cl)cc3)c2n1` [Example 6, 8-(4-Chlorophenyl)-N-(2-methoxyethyl)-1,6-naphthyridine-2-carboxamide], the EC (150% of control) falls from 0.03 µM to 0.02 µM (1.5-fold).

`COCCNC(=O)c1ccc2cncc(-c3cccc(OC)c3)c2n1` [Example 3, N-(2-Methoxyethyl)-8-(3-methoxyphenyl)-1,6-naphthyridine-2-carboxamide] and `COCCNC(=O)c1ccc2cncc(-c3cccc(Cl)c3)c2n1` [Example 7, 8-(3-Chlorophenyl)-N-(2-methoxyethyl)-1,6-naphthyridine-2-carboxamide] are within 1.5-fold of each other in EC (150% of control): 0.26 µM for the first, 0.32 µM for the second.

`COCCNC(=O)c1ccc2cncc(-c3ccccc3OC)c2n1` [Example 5, N-(2-Methoxyethyl)-8-(2-methoxyphenyl)-1,6-naphthyridine-2-carboxamide] and `COCCNC(=O)c1ccc2cncc(-c3ccccc3Cl)c2n1` [Example 8, 8-(2-Chlorophenyl)-N-(2-methoxyethyl)-1,6-naphthyridine-2-carboxamide] are within 1.5-fold of each other in EC (150% of control): 0.26 µM for the first, 0.33 µM for the second.

Compared with `O=C(NCc1ccncc1)c1ccc2cncc(Br)c2n1` [Example 9, 8-Bromo-[1,6]naphthyridine-2-carboxylic acid (pyridin-4-ylmethyl)-amide], `O=C(NCc1ccccc1)c1ccc2cncc(Br)c2n1` [Example 10, N-Benzyl-8-bromo-1,6-naphthyridine-2-carboxamide] is 1.7-fold lower in EC (150% of control): 1.27 µM for the first, 0.76 µM for the second.

First: COc1cccc(-c2cncc3ccc(C(=O)NCc4ccccc4)nc23)c1 [Example 11, N-Benzyl-8-(3-methoxyphenyl)-1,6-naphthyridine-2-carboxamide]
Second: O=C(NCc1ccccc1)c1ccc2cncc(-c3cccc(Cl)c3)c2n1 [Example 14, N-Benzyl-8-(3-chlorophenyl)-1,6-naphthyridine-2-carboxamide]
The EC (150% of control) of the first is 18-fold lower: 0.03 µM for the first, 0.54 µM for the second.

Going from `COc1ccccc1-c1cncc2ccc(C(=O)NCc3ccccc3)nc12` [Example 12, N-Benzyl-8-(2-methoxyphenyl)-1,6-naphthyridine-2-carboxamide] to `O=C(NCc1ccccc1)c1ccc2cncc(-c3ccccc3Cl)c2n1` [Example 15, N-Benzyl-8-(2-chlorophenyl)-1,6-naphthyridine-2-carboxamide], the EC (150% of control) rises from 0.17 µM to 0.58 µM (3.4-fold).

Going from `O=C(NCc1ccccc1)c1ccc2cncc(-c3ccncc3)c2n1` [Example 16, N-Benzyl-8-(pyridin-4-yl)-1,6-naphthyridine-2-carboxamide] to `O=C(NCc1ccccc1)c1ccc2cncc(-c3cccnc3)c2n1` [Example 17, N-Benzyl-8-(pyridin-3-yl)-1,6-naphthyridine-2-carboxamide], the EC (150% of control) rises from 0.04 µM to 0.11 µM (2.8-fold).

Compared with `COCCNC(=O)c1ccc2cncc(-c3ccncc3)c2n1` [Example 18, N-(2-Methoxyethyl)-8-(pyridin-4-yl)-1,6-naphthyridine-2-carboxamide], `COCCNC(=O)c1ccc2cncc(-c3cccnc3)c2n1` [Example 19, N-(2-methoxyethyl)-8-(pyridin-3-yl)-1,6-naphthyridine-2-carboxamide] is 1.6-fold higher in EC (150% of control): 0.31 µM for the first, 0.49 µM for the second.

`COc1ccc(-c2cncc3ccc(C(=O)NCCc4ccccc4)nc23)cc1` [Example 20, 8-(4-Methoxyphenyl)-N-phenethyl-1,6-naphthyridine-2-carboxamide] and `COc1ccc(-c2cncc3ccc(C(=O)NCCCc4ccccc4)nc23)cc1` [Example 25, 8-(4-Methoxyphenyl)-N-(3-phenylpropyl)-1,6-naphthyridine-2-carboxamide] are within 1.5-fold of each other in EC (150% of control): 0.8 µM for the first, 0.67 µM for the second.

Going from `COc1ccc(-c2cncc3ccc(C(N)=O)nc23)cc1` [Example 21, 8-(4-Methoxyphenyl)-1,6-naphthyridine-2-carboxamide] to `COc1ccc(-c2cncc3ccc(C(=O)NCc4cccnc4)nc23)cc1` [Example 22, 8-(4-Methoxyphenyl)-N-(pyridin-3-ylmethyl)-1,6-naphthyridine-2-carboxamide], the EC (150% of control) rises from 0.01 µM to 0.03 µM (3-fold).

First: COc1ccc(-c2cncc3ccc(C(=O)NCc4ccccn4)nc23)cc1 [Example 23, 8-(4-Methoxyphenyl)-N-(pyridin-2-ylmethyl)-1,6-naphthyridine-2-carboxamide]
Second: COc1ccc(-c2cncc3ccc(C(=O)N(C)Cc4ccccc4)nc23)cc1 [Example 33, N-Benzyl-8-(4-methoxyphenyl)-N-methyl-1,6-naphthyridine-2-carboxamide]
The EC (150% of control) of the first is 7.3-fold lower: 0.03 µM for the first, 0.22 µM for the second.

Going from `Cc1ccnc(-c2cncc3ccc(C(=O)NCc4ccccc4)nc23)c1` [Example 24, N-Benzyl-8-(4-methylpyridin-2-yl)-1,6-naphthyridine-2-carboxamide] to `O=C(NCc1ccncc1)c1ccc2cncc(-c3ccccc3Cl)c2n1` [Example 30, 8-(2-Chlorophenyl)-N-(pyridin-4-ylmethyl)-1,6-naphthyridine-2-carboxamide], the EC (150% of control) falls from 0.94 µM to 0.49 µM (1.9-fold).

Going from `COc1cccc(-c2cncc3ccc(C(=O)NCc4ccncc4)nc23)c1` [Example 26, 8-(3-Methoxyphenyl)-N-(pyridin-4-ylmethyl)-1,6-naphthyridine-2-carboxamide] to `O=C(NCc1ccncc1)c1ccc2cncc(-c3cccc(Cl)c3)c2n1` [Example 29, 8-(3-Chlorophenyl)-N-(pyridin-4-ylmethyl)-1,6-naphthyridine-2-carboxamide], the EC (150% of control) rises from 0.28 µM to 0.51 µM (1.8-fold).

First: COc1ccccc1-c1cncc2ccc(C(=O)NCc3ccncc3)nc12 [Example 27, 8-(2-Methoxyphenyl)-N-(pyridin-4-ylmethyl)-1,6-naphthyridine-2-carboxamide]
Second: O=C(NCc1ccncc1)c1ccc2cncc(-c3ccc(Cl)cc3)c2n1 [Example 28, 8-(4-Chlorophenyl)-N-(pyridin-4-ylmethyl)-1,6-naphthyridine-2-carboxamide]
The EC (150% of control) of the first is 5.6-fold higher: 0.56 µM for the first, 0.1 µM for the second.

First: O=C(NCc1ccncc1)c1ccc2cncc(-c3cccnc3)c2n1 [Example 31, 8-(Pyridin-3-yl)-N-(pyridin-4-ylmethyl)-1,6-naphthyridine-2-carboxamide]
Second: O=C(NCc1ccncc1)c1ccc2cncc(-c3ccncc3)c2n1 [Example 32, 8-(Pyridin-4-yl)-N-(pyridin-4-ylmethyl)-1,6-naphthyridine-2-carboxamide]
The EC (150% of control) of the first is 1.9-fold higher: 0.54 µM for the first, 0.29 µM for the second.

— patent publication US9657014B2, “Substituted 1,6-naphthyridines” (Hoffmann-La Roche Inc., priority 2012, dated 2017)
